Source: the supplement of paper PMC13207355

What was measured:
Conditions in all cases: exposure time: 72 h
E28 [1] = patient-derived glioblastoma stem cells of classical subtype; test: phenotypic distance (Euclidean, principal components) from DMSO controls (arbitrary units); higher = stronger morphological change
E34 [2] = patient-derived glioblastoma stem cells of proneural subtype; test: as above
E31 [3] = patient-derived glioblastoma stem cells of proneural subtype; test: as above
E13 [4] = patient-derived glioblastoma stem cells of classical subtype; test: as above
E57 [5] = patient-derived glioblastoma stem cells of mesenchymal subtype; test: as above
E21 [6] = patient-derived glioblastoma stem cells of mesenchymal subtype; test: as above
FT3469 [7] = normal neural stem cell line; test: as above
E28 [8] = test: surviving fraction (nuclei count normalised to DMSO); higher = more cells surviving (less toxic)
E34 [9] = test: as above
E31 [10] = test: as above
E13 [11] = test: as above
E57 [12] = test: as above
E21 [13] = test: as above
FT3469 [14] = test: as above
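Wherever phenotypic distance (Euclidean, principal components) from DMSO controls is given: cell Painting imaging in 384-well plates, CellProfiler features reduced to at least 20 principal components, Euclidean distance versus same-plate DMSO vehicle wells (0.1% v/v), median over six images per well.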
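Wherever surviving fraction (nuclei count normalised to DMSO) is given: nuclei counted by high-content imaging of Hoechst-stained cells in laminin-coated 384-well plates, relative to 0.1% DMSO vehicle wells, with staurosporine as cell-death control.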

CC(=O)[C@]1(O)Cc2c(O)c3c(c(O)c2[C@@H](O[C@H]2C[C@H](N)[C@H](O)[C@H](C)O2)C1)C(=O)c1ccccc1C3=O [Idarubicin]
Conditions	phenotypic distance	surviving fraction
E13 [4], 4.1 nM	7.02	–
E13 [4], 12.3 nM	6.41	–
E13 [4], 37 nM	6.27	–
E13 [4], 111.1 nM	5.38	–
E13 [4], 333.3 nM	6.31	–
E13 [4], 1000 nM	6.11	–
E13 [4], 3000 nM	6.59	–
E13 [11], 4.1 nM	–	0.402
E13 [11], 12.3 nM	–	0.404
E13 [11], 37 nM	–	0.255
E13 [11], 111.1 nM	–	0.25
E13 [11], 333.3 nM	–	0.179
E13 [11], 1000 nM	–	0.0911
E13 [11], 3000 nM	–	0.0243
E21 [6], 4.1 nM	7.83	–
E21 [6], 12.3 nM	6.13	–
E21 [6], 37 nM	5.05	–
E21 [6], 111.1 nM	5.05	–
E21 [6], 333.3 nM	5.58	–
E21 [6], 1000 nM	5.16	–
E21 [6], 3000 nM	8.48	–
E21 [13], 4.1 nM	–	0.371
E21 [13], 12.3 nM	–	0.371
E21 [13], 37 nM	–	0.165
E21 [13], 111.1 nM	–	0.193
E21 [13], 333.3 nM	–	0.167
E21 [13], 1000 nM	–	0.164
E21 [13], 3000 nM	–	0.0457
E28 [1], 4.1 nM	2.71	–
E28 [1], 12.3 nM	3.28	–
E28 [1], 37 nM	3.42	–
E28 [1], 111.1 nM	2.57	–
E28 [1], 333.3 nM	3.02	–
E28 [1], 1000 nM	4.74	–
E28 [1], 3000 nM	5.14	–
E28 [8], 4.1 nM	–	0.386
E28 [8], 12.3 nM	–	0.41
E28 [8], 37 nM	–	0.313
E28 [8], 111.1 nM	–	0.304
E28 [8], 333.3 nM	–	0.271
E28 [8], 1000 nM	–	0.18
E28 [8], 3000 nM	–	0.241
E31 [3], 4.1 nM	2.69	–
E31 [3], 12.3 nM	2.97	–
E31 [3], 37 nM	3.12	–
E31 [3], 111.1 nM	4.59	–
E31 [3], 333.3 nM	4.15	–
E31 [3], 1000 nM	5.28	–
E31 [3], 3000 nM	4.78	–
E31 [10], 4.1 nM	–	0.259
E31 [10], 12.3 nM	–	0.226
E31 [10], 37 nM	–	0.179
E31 [10], 111.1 nM	–	0.149
E31 [10], 333.3 nM	–	0.139
E31 [10], 1000 nM	–	0.114
E31 [10], 3000 nM	–	0.072
E34 [2], 4.1 nM	4.82	–
E34 [2], 12.3 nM	4.66	–
E34 [2], 37 nM	2.72	–
E34 [2], 111.1 nM	2.83	–
E34 [2], 333.3 nM	2.83	–
E34 [2], 1000 nM	5.05	–
E34 [2], 3000 nM	4	–
E34 [9], 4.1 nM	–	0.611
E34 [9], 12.3 nM	–	0.511
E34 [9], 37 nM	–	0.54
E34 [9], 111.1 nM	–	0.538
E34 [9], 333.3 nM	–	0.479
E34 [9], 1000 nM	–	0.448
E34 [9], 3000 nM	–	0.15
E57 [5], 4.1 nM	11.4	–
E57 [5], 12.3 nM	9.36	–
E57 [5], 37 nM	6.52	–
E57 [5], 111.1 nM	6.05	–
E57 [5], 333.3 nM	5.69	–
E57 [5], 1000 nM	6.02	–
E57 [5], 3000 nM	6.32	–
E57 [12], 4.1 nM	–	0.197
E57 [12], 12.3 nM	–	0.205
E57 [12], 37 nM	–	0.146
E57 [12], 111.1 nM	–	0.166
E57 [12], 333.3 nM	–	0.14
E57 [12], 1000 nM	–	0.124
E57 [12], 3000 nM	–	0.0591
FT3469 [7], 4.1 nM	1.93	–
FT3469 [7], 12.3 nM	1.84	–
FT3469 [7], 37 nM	1.77	–
FT3469 [7], 111.1 nM	1.39	–
FT3469 [7], 333.3 nM	2.3	–
FT3469 [7], 1000 nM	3.94	–
FT3469 [7], 3000 nM	5.56	–
FT3469 [14], 4.1 nM	–	0.654
FT3469 [14], 12.3 nM	–	0.716
FT3469 [14], 37 nM	–	0.663
FT3469 [14], 111.1 nM	–	0.592
FT3469 [14], 333.3 nM	–	0.495
FT3469 [14], 1000 nM	–	0.439
FT3469 [14], 3000 nM	–	0.0825
